# Laboratory results published in PubChem BioAssay (NCI).
#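 Assay format: 96-well plates, 48-hour exposure. TGI is the concentration that stops growth completely.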
# Legend:
# Test in all cases: NCI tumour cell line growth inhibition, 48 h
# KM20L2 colon = test system: KM20L2 colon
# P388 leukemia = test system: P388 leukemia
# P388/ADR leukemia = test system: P388/ADR leukemia
# SN12K1 renal = test system: SN12K1 renal
# LXFL 529 NSCLC = test system: LXFL 529 NSCLC
# RXF-631 renal = test system: RXF-631 renal
# SNB-78 CNS = test system: SNB-78 CNS
# XF 498 CNS = test system: XF 498 CNS
SMILES,TGI (KM20L2 colon) [µM],TGI (P388 leukemia) [µM],TGI (P388/ADR leukemia) [µM],TGI (SN12K1 renal) [µM],TGI (LXFL 529 NSCLC) [µM],TGI (RXF-631 renal) [µM],TGI (SNB-78 CNS) [µM],TGI (XF 498 CNS) [µM]
O=S(=O)(CCBr)CCBr,23.2,5.67,12.1,19.7,,,,
COc1cc2c(cc1OC)C(C(CO)CO)N(CC(O)CCl)CC2 (stereo not given),> 100,,,,> 100,> 100,> 100,> 100
N#CC1=C(N)n2c(s/c(=C\c3ccc(Cl)cc3)c2=O)=C(c2nc3ccccc3[nH]2)C1c1ccc(Cl)cc1 (stereo not given),6.06,,,,4.58,,,3.38
O=C(/N=C/c1c(O)c2ccccc2oc1=O)Nc1ccccc1,> 100,,,,> 100,,> 100,> 100
Cc1c(Cl)c2ccccc2n1S(=O)(=O)c1ccccc1,> 100,,,,> 100,,,> 100
COc1ccc(-c2cc(=O)c3cc4c(cc3[nH]2)OCO4)cc1OC,> 100,,,,> 100,,> 100,> 100
CN(C)c1ccc(C(=C(c2ccc(N(C)C)cc2)c2ccc(N(C)C)cc2)c2ccc(N(C)C)cc2)cc1,42.4,,,,25.6,40.6,> 100,
NC(CCCC(N)P(=O)(O)c1ccccc1)P(=O)(O)c1ccccc1 (stereo not given),> 261,,,,> 261,,> 261,> 261
Cc1cccc2c(=O)c([Se]c3coc4c(C)cccc4c3=O)coc12,52.6,,,,29.2,,30.4,34.8
O=C(c1ccc(Cl)cc1)c1ccc(OCCCOc2ccc(C(=O)c3ccc(Cl)cc3)cc2)cc1,> 100,,,,> 100,,,> 100
O=C1c2ccc(O)cc2C(=O)c2ccc(O)cc21,,,,,> 100,> 100,> 100,> 100
C[C@]12CCC(=O)C=C1CC[C@@H]1[C@@H]2[C@@H](O)C[C@@]2(C)[C@H]1CC[C@]2(O)C(=O)COC(=O)COCC(=O)O,> 100,,,,,,> 100,> 100
